From US20180303940A1, “LIPOSOME PRODUCTION USING ISOPROPANOL” (GLAXOSMITHKLINE BIOLOGICALS, S.A., priority 2011, published 2018) come the findings set out here.

A short description of this series: Cholesterol solubility in solvents at saturation (dry residue weighed). It is filed as physicochemical. Conditions: 50° C. The protocol: 3 solvent compared: Ethanol , Isopropanol, Heptane
Cholesterol was progressively added to each solvent at 50° C. up to saturation of the solution
Once saturation is achieved, a sample of the solution is taken and the solvent is evaporated with a rotary evaporator and/or in an oven. Dry residue of cholesterol is weighed to determine the solubility value

`CC(C)CCC[C@@H](C)[C@H]1CC[C@H]2[C@@H]3CC=C4C[C@@H](O)CC[C@]4(C)[C@H]3CC[C@]12C` [cholesterol, (3β)-cholest-5-en-3-ol]: under “ethanol”, the “cholesterol solubility in ethanol” value is on record as 6.7%. Moreover, the “cholesterol solubility in heptane” value (heptane) is on record as 4.3%. For the setting “isopropanol”, the “cholesterol solubility in isopropanol” value amounted to 12.1%.
